The text below walks through data of ChEMBL document CHEMBL3886662, “Acid addition salt of substituted pyridine compound” (2016).

Where “and” joins values, the source holds several entries; their conditions need not be identical. Equal entries are not always repeated.

This assay concerns the target T1, Cholesteryl ester transfer protein (Homo sapiens, UniProt P11597).
T1 sequence (P11597 whole entry): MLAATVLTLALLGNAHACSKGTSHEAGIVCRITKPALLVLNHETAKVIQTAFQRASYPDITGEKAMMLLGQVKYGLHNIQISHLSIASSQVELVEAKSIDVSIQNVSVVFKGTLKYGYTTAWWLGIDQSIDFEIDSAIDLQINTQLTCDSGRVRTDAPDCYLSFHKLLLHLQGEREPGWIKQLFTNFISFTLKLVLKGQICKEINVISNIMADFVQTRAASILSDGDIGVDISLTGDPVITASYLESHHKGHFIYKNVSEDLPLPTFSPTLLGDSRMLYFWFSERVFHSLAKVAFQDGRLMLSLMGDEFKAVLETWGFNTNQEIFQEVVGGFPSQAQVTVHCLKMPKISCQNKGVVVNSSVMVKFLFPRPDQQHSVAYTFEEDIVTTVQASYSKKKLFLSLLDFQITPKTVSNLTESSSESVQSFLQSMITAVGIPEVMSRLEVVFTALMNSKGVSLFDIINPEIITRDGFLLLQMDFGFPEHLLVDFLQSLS
Briefly: CETP Inhibition Assay: A recombinant human CETP protein (manufactured by Roar Biomedical Inc.; 4.5 ng), the acceptor lipoprotein described in (2) above (32.5 μg) and 5,5'-dithio-bis-(2-nitrobenzoic acid) (7 mM, 15 μl) were taken in a 96 well plate and the total amount of the mixture was adjusted to 48.5 μl with the PBS solution. The test compound [DMSO solution (concentration: 0.15, 0.5, 1.5, 5, 15, 50, 150 and 500 μM); 1.5 μl] was added to each well and the mixture was incubated in a thermostatic bath at 37 °C. for 60 minutes. The reconstituted HDL (50 μl) described in (1) above was added to each well and the mixture was reacted in a thermostatic bath at 37 °C. for 60 minutes. The 96 well plate was moved onto ice and a precipitation reagent [a mixed solution of magnesium chloride (60 mM) and 0.1% dextran sulfate[1/1(v/v)]; 15 μl] was added to each well, and then the mixture was allowed to stand on ice for 15 minutes. The reaction solution (80 μl) in each well was moved to a filter plate and centrifuged at 1500 rpm for 1 minute, and the filtrate which passed through the filter was designated as the HDL fraction and the radioactivity thereof was measured with a scintillation counter.

Take `CC(C)(O)CCOc1cnc(N2CCC(c3nc4c(c(C5CCC(F)(F)CC5)c3[C@@H](F)c3ccc(C(F)(F)F)cc3)[C@@H](O)CC(C)(C)C4)CC2)nc1`: the IC50 is 17.8 nM and 21.3 nM.
